These results are taken from patent EP3095787A1, “[…] ACTIVE COMPOUNDS AS DAG-LIPASE INHIBITORS” (Universiteit Leiden, priority 2015, dated 2016).

For this test, the target named is T1, FAAH (Mus musculus, UniProt O08914).
T1 construct: For gel based ABPP experiments mouse brain proteome (2.0 mg/mL, 20 µL) was preincubated; from tissue; host or cells: mouse brain proteome
T1 sequence (O08914 1-579): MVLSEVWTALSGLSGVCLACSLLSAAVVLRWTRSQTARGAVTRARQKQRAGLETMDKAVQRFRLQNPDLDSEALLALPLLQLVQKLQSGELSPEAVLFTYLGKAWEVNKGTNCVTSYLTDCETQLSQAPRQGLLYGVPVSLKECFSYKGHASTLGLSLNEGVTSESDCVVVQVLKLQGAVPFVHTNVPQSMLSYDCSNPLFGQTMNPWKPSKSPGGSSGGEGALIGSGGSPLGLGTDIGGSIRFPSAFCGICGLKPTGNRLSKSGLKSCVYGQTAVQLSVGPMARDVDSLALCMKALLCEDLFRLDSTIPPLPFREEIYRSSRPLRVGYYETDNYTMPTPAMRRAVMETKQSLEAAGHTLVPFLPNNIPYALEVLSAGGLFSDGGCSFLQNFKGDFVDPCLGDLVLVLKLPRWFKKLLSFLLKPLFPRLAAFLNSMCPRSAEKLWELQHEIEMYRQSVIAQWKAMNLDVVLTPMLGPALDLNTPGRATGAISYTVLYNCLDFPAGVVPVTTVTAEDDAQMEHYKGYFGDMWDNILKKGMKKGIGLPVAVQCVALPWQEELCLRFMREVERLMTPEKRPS
The experiment in a line: Gel based competitive ABPP selectivity assay with TAMRA-FP in mouse brain proteome (FAAH band). The format is biochemical. Conditions: 10 µM inhibitor; TAMRA-FP 500 nM; mouse brain proteome; vehicle set to 100%. The procedure: For gel based ABPP experiments mouse brain proteome (2.0 mg/mL, 20 µL) was preincubated for 30 min with vehicle (DMSO) or compound to be tested in 0.5 µL DMSO at rt. And subsequently treated with 500 nM (final concentration) TAMRA-FP (TAMRA-FP was bought at Thermo Fischer) for 15 minutes at rt. The reactions were quenched with 10 µL standard 3 x SDS page sample buffer. The samples were directly loaded and resolved on SDS page gel (10 % acrylamide). The gels were scanned with a ChemiDoc MP sytem (Biorad, Cy 3 settings, 605/50 filter) and analyzed using Image Lab 4.1.
The percentage effect on FAAH was determined by measuring the integrated optical intensity of the band corresponding to FAAH (∼ 63 kD for mouse) using Image lab software. This activity was corrected for the total protein loading per lane as determined by coomassie staining and imaging with a ChemiDoc™ MP sytem (Biorad) followed by determination of the integrated optical intensity per lane by using Image Lab 4.1 software. The intensity of the protein bands from the samples treated with vehicle was set to 100%. […] N/A means less than 50% probe displacement at 10 µM inhibitor concentration.
For the molecule `Cc1ccc(-c2cnc3nc(C(=O)Cc4ccccc4)oc3c2)cc1` [Compound 34, 2-phenyl-1-(6-(p-tolyl)oxazolo[4,5-b]pyridin-2-yl)ethan-1-one], the “FAAH ABPP (10 µm) % Eff.” value was “N/A (N/A means less than 50% probe displacement at 10 µM inhibitor concentration)”. Regarding `Cc1ccc(-c2cnc3nc(C(=O)CCc4ccccc4)oc3c2)cc1` [Compound 35, 3-phenyl-1-(6-(p-tolyl)oxazolo[4,5-b]pyridin-2-yl)propan-1-one], the “FAAH ABPP (10 µm) % Eff.” value is “N/A (N/A means less than 50% probe displacement at 10 µM inhibitor concentration)”. In the case of `Cc1ccc(-c2cnc3nc(C(=O)CCCc4ccccc4)oc3c2)cc1` [Compound 36, 4-phenyl-1-(6-(p-tolyl)oxazolo[4,5-b]pyridin-2-yl)butan-1-one] it was “N/A (N/A means less than 50% probe displacement at 10 µM inhibitor concentration)”; in that of `O=C(CCCCCc1ccccc1)c1nc2ncc(-c3ccncc3)cc2o1` [Compound 37, 6-phenyl-1-(6-(pyridin-4-yl)oxazolo[4,5-b]pyridin-2-yl)hexan-1-one], “N/A (N/A means less than 50% probe displacement at 10 µM inhibitor concentration)”. With `O=C(CCCCCc1ccccc1)c1nc2ncc(-c3ccccc3Cl)cc2o1` [Compound 38, 1-(6-(2-chlorophenyl)oxazolo[4,5-b]pyridin-2-yl)-6-phenylhexan-1-one], the “FAAH ABPP (10 µm) % Eff.” value is recorded as “N/A (N/A means less than 50% probe displacement at 10 µM inhibitor concentration)”. In the case of `O=C(CCCCCc1ccccc1)c1nc2ncc(-c3cccc(Cl)c3)cc2o1` [Compound 39, 1-(6-(3-chlorophenyl)oxazolo[4,5-b]pyridin-2-yl)-6-phenylhexan-1-one], the “FAAH ABPP (10 µm) % Eff.” value is “N/A (N/A means less than 50% probe displacement at 10 µM inhibitor concentration)”. In the case of `O=C(CCCCCc1ccccc1)c1nc2ncc(-c3ccc(Cl)cc3)cc2o1` [Compound 40, 1-(6-(4-chlorophenyl)oxazolo[4,5-b]pyridin-2-yl)-6-phenylhexan-1-one], the “FAAH ABPP (10 µm) % Eff.” value is given as “N/A (N/A means less than 50% probe displacement at 10 µM inhibitor concentration)”.

Take `COc1ccc(-c2cnc3nc(C(=O)CCCCCc4ccccc4)oc3c2)cc1` [Compound 41, 1-(6-(4-methoxyphenyl)oxazolo[4,5-b]pyridin-2-yl)-6-phenylhexan-1-one]: the “FAAH ABPP (10 µm) % Eff.” value is reported as “N/A (N/A means less than 50% probe displacement at 10 µM inhibitor concentration)”. As to `Cc1ccc(-c2cnc3nc(C(=O)CCC(F)(F)F)oc3c2)cc1` [Compound 42, 4,4,4-trifluoro-1-(6-(p-tolyl)oxazolo[4,5-b]pyridin-2-yl)butan-1-one], the “FAAH ABPP (10 µm) % Eff.” value is given as “N/A (N/A means less than 50% probe displacement at 10 µM inhibitor concentration)”. As for `Cc1ccc(-c2cnc3nc(C(=O)CCCCC(F)(F)F)oc3c2)cc1` [Compound 43, 6,6,6-trifluoro-1-(6-(p-tolyl)oxazolo[4,5-b]pyridin-2-yl)hexan-1-one], the “FAAH ABPP (10 µm) % Eff.” value was “N/A (N/A means less than 50% probe displacement at 10 µM inhibitor concentration)”. For `O=C(CCCCCc1ccccc1)c1nc2ncc(-c3cccs3)cc2o1` [Compound 44, 6-phenyl-1-(6-(thiophen-2-yl)oxazolo[4,5-b]pyridin-2-yl)hexan-1-one], the “FAAH ABPP (10 µm) % Eff.” value is “N/A (N/A means less than 50% probe displacement at 10 µM inhibitor concentration)”. For the molecule `O=C(CCCCCc1ccccc1)c1nc2ncc(-c3nnn[nH]3)cc2o1` [Compound 45, 1-(6-(1H-tetrazol-5-yl)oxazolo[4,5-b]pyridin-2-yl)-6-phenylhexan-1-one], the “FAAH ABPP (10 µm) % Eff.” value is “N/A (N/A means less than 50% probe displacement at 10 µM inhibitor concentration)”. `Cn1cccc1-c1cnc2nc(C(=O)CCCCCc3ccccc3)oc2c1` [Compound 46, 1-(6-(1-methyl-1H-pyrrol-2-yl)oxazolo[4,5-b]pyridin-2-yl)-6-phenylhexan-1-one]: the “FAAH ABPP (10 µm) % Eff.” value is reported as “N/A (N/A means less than 50% probe displacement at 10 µM inhibitor concentration)”. In the case of `Cc1ccccc1-c1cnc2nc(C(=O)CCCCCc3ccc(F)cc3)oc2c1` [Compound 47, 6-(4-fluorophenyl)-1-(6-(o-tolyl)oxazolo[4,5-b]pyridin-2-yl)hexan-1-one] it was “N/A (N/A means less than 50% probe displacement at 10 µM inhibitor concentration)”; in that of `O=C(CCCCCc1ccncc1)c1nc2ncc(-c3ccccc3F)cc2o1` [Compound 48, 1-(6-(2-fluorophenyl)oxazolo[4,5-b]pyridin-2-yl)-6-(pyridin-4-yl)hexan-1-one], “N/A (N/A means less than 50% probe displacement at 10 µM inhibitor concentration)”.

Take `Cc1ccccc1-c1cnc2nc(C(=O)CCCCOc3ccc(F)cc3)oc2c1` [Compound 49, 5-(4-fluorophenoxy)-1-(6-(o-tolyl)oxazolo[4,5-b]pyridin-2-yl)pentan-1-one]: the “FAAH ABPP (10 µm) % Eff.” value is on record as “N/A (N/A means less than 50% probe displacement at 10 µM inhibitor concentration)”. Consider `Cc1cccc(C)c1-c1cnc2nc(C(=O)CCCCCc3ccccc3)oc2c1` [Compound 50, 1-(6-(2,6-dimethylphenyl)oxazolo[4,5-b]pyridin-2-yl)-6-phenylhexan-1-one], for which the “FAAH ABPP (10 µm) % Eff.” value is “N/A (N/A means less than 50% probe displacement at 10 µM inhibitor concentration)”. Turning to `N#Cc1ccc(-c2cnc3nc(C(=O)CCCCCc4ccccc4)oc3c2)cc1` [Compound 51, 4-(2-(6-phenylhexanoyl)oxazolo[4,5-b]pyridin-6-yl)benzonitrile], the “FAAH ABPP (10 µm) % Eff.” value is “N/A (N/A means less than 50% probe displacement at 10 µM inhibitor concentration)”.

`O=C(CCCCCc1ccccc1)c1nc2ncc(-c3cccc(F)c3)cc2o1` [Compound 52, 1-(6-(3-fluorophenyl)oxazolo[4,5-b]pyridin-2-yl)-6-phenylhexan-1-one]: the “FAAH ABPP (10 µm) % Eff.” value is “N/A (N/A means less than 50% probe displacement at 10 µM inhibitor concentration)”. With `O=C(CCCCCc1ccccc1)c1nc2ncc(-c3ccccn3)cc2o1` [Compound 53, 6-phenyl-1-(6-(pyridin-2-yl)oxazolo[4,5-b]pyridin-2-yl)hexan-1-one], the “FAAH ABPP (10 µm) % Eff.” value is given as “N/A (N/A means less than 50% probe displacement at 10 µM inhibitor concentration)”. In the case of `Cc1ccccc1-c1cnc2nc(C(=O)CCCCCc3ccccc3)oc2c1` [Compound 54, 6-phenyl-1-(6-(o-tolyl)oxazolo[4,5-b]pyridin-2-yl)hexan-1-one] it was “N/A (N/A means less than 50% probe displacement at 10 µM inhibitor concentration)”; in that of `Cc1cccc(-c2cnc3nc(C(=O)CCCCCc4ccccc4)oc3c2)c1` [Compound 55, 6-phenyl-1-(6-(m-tolyl)oxazolo[4,5-b]pyridin-2-yl)hexan-1-one], “N/A (N/A means less than 50% probe displacement at 10 µM inhibitor concentration)”; in that of `O=C(CCCCCc1ccccc1)c1nc2ncc(-c3ccccc3F)cc2o1` [Compound 57, 1-(6-(2-fluorophenyl)oxazolo[4,5-b]pyridin-2-yl)-6-phenylhexan-1-one], “N/A (N/A means less than 50% probe displacement at 10 µM inhibitor concentration)”.

With `O=C(CCCCCc1ccccc1)c1nc2ncc(-c3ccc(F)cc3)cc2o1` [Compound 58, 1-(6-(4-fluorophenyl)oxazolo[4,5-b]pyridin-2-yl)-6-phenylhexan-1-one], the “FAAH ABPP (10 µm) % Eff.” value is recorded as “N/A (N/A means less than 50% probe displacement at 10 µM inhibitor concentration)”.
